In patent US7196094B2, “Farnesyl transferase inhibiting 6-heterocyclylmethyl quinoline and quinazoline derivatives” (Janssen Pharmaceutica, N.V., priority 2000, dated 2007):

Row | Compound | melting point [°C]
1 | Cn1cncc1C(c1ccc2c(c1)c(-c1cccc(Cl)c1)nc1nnnn12)n1ccnc1-c1ccccc1 (stereo not drawn) [Compound 10, 5-(3-chlorophenyl)-7-[(1-methyl-1H-imidazol-5-yl)(2-phenyl-1H-imidazol-1-yl)methyl]-tetrazolo[1,5-a]quinazoline] | 150
2 | Cn1cncc1C(O)(c1ccoc1)c1ccc2c(c1)c(-c1cccc(Cl)c1)cc1nnnn12 (stereo not drawn) [Compound 3, 5-(3-chlorophenyl)-α-(3-furanyl)-α-(1-methyl-1H-imidazol-5-yl)-tetrazolo[1,5-a]quinoline-7-methanol] | 188
3 | Cn1cncc1C(O)(c1ccc2ncccc2c1)c1ccc2c(c1)c(-c1cccc(Cl)c1)nc(=O)n2C (stereo not drawn) [Compound 7, 4-(3-chlorophenyl)-6-[hydroxy(1-methyl-1H-imidazol-5-yl)-6-quinolinylmethyl]-1-methyl-2(1H)-quinazolinone] | 192
